{"source": "paper PMC9784827", "about": "“In Combo Studies for the Optimization of 5-Aminoanthranilic Acid Derivatives as Potential Multitarget Drugs for the Management of Metabolic Syndrome” (Pharmaceuticals, 2022)", "key": {"diet-induced MetS model [1]": {"system": "diet-induced MetS model", "parameters": "method as in PMID 34577613", "conditions": "in vivo diet-induced MetS model, previous study ref 38; cited from earlier work"}, "diet-induced MetS model [2]": {"system": "diet-induced MetS model", "assay": "In vivo diet-induced (high-fructose high-fat) MetS model", "parameters": "species or system Sprague–Dawley male rats", "conditions": "MetS rats, 10 mg/kg p.o. for 14 days, vs untreated group; for effect on glucose levels / effect on total cholesterol levels / effect on triglyceride levels / effect on body weight: HFHF diet; for effect on glucose levels / effect on total cholesterol levels / effect on triglyceride levels: serum; for effect on triglycerides and glucose (TyG) index: TyG = Ln(triglyceride x glucose/2)", "procedure": "In the diet-induced model, MetS was generated through 12 weeks of the consumption of a high-fructose high-fat (HFHF) diet per the previous experience in our group. The control group received a standard diet during the same period. After this induction phase, the animals of the standard diet were randomly allocated into two groups; one group (C/treated groups) would receive treatment with compounds 2, 3, or 4 for 14 days (10 mg/kg, p.o.), and the other group would receive no treatment (C groups). The same allocation was made for the diet-induced MetS group (the MetS group received no treatment, while MetS/treated groups received compound 2, 3, or 4, 10 mg/kg, p.o. for 14 days), as depicted in Figure 4.\nFor the in vivo experimentation, eighty Sprague–Dawley male rats weighing 250 ± 25 g were housed in acrylic boxes and treated following the recommendations and requirements of the NOM-062-ZOO-1999 (Official Mexican Standard for the Production, Care, and Use of Laboratory Animals). They were kept in a clear-air room maintained on an artificial 12 h light/dark cycle and were given ad libitum access to food and water. The protocol was approved by the Institutional Subcommittee for the Care and Use of Laboratory Animals (SICUAL) with the registration number FMM/SICUAL/006/2017 (date of approval, 30 August 2017).\nThe animals were randomly allocated to a group (control groups) that was fed on a regular Chow commercial diet (Purina-Rodent Laboratory Chow-5001 3.310 kcal/g) or to a group (MetS groups) that was supplied with a high-fructose and high-fat diet (4.161 kcal/g) for the generation of MetS. From our own experience, MetS is established after twelve weeks with this diet. The weight of each animal was recorded at the beginning of the study and every week after the completion of the induction period. In weeks nine and twelve, the glucose, total cholesterol, and triglyceride levels were monitored in fasting conditions of 12 h, using an Accutrend plus monitor (Roche). Following the MetS induction phase, the control and MetS groups were rearranged into the following groups: (1) control (CM, regular diet + no treatment n = 10); (2) MetS (HFHF diet + no treatment, n = 10); (3) control + compound 2 (C/2 regular diet + treatment with 2, n = 10); (4) MetS + compound 2 (MetS/2, HFHF diet + treatment with 2, n = 10); (5) control + compound 3 (C/3, regular diet + treatment with […], n = 10); (6) MetS + compound 3 (MetS/3, HFHF diet + treatment with 3, n = 10); (7) control + compound 4 (C/4, regular diet + treatment with 4, n = 10); (8) MetS + compound 4 (MetS/4, HFHF diet + treatment with 4, n = 10). The treatment stage lasted 14 days, and the animals retained the same diet they had during the induction to exclude the effect of diet change. All the animals received 100 μL of a 1% Kolliphor EL mixture in water with or without the tested compound (10 mg/Kg) via nasogastric. Animals were sacrificed by decapitation. The blood was collected and centrifuged at 1372× g for 15 min at 4 °C. The serum was gathered and stored at −80 °C until the determination of metabolic parameters.\nThe animals’ serum was defrosted, and triacylglyceride, cholesterol, and glucose levels were determined on an Architect c8000 system (Abbott, Wiesbaden, Germany). Statistical analysis was performed using one-way ANOVA, followed by Dunnett’s multiple comparisons tests employing GraphPad Prism version 9.4.1 (GraphPad Software, La Jolla, CA, USA). Differences were considered significant when p ≤ 0.05."}, "[3]": {"assay": "Total antioxidant capacity, CUPRAC assay (Trolox equivalent antioxidant capacity)", "conditions": "triplicate", "procedure": "(§1) The HMG-CoA Reductase Assay Kit from Sigma-Aldrich (catalog number CS1090, St. Louis, MO, USA) was used to determine the inhibitory properties of compounds 3 and 4 over enzyme activity, using the instructions provided by the fabricant. […] For IC50 determination of compound 3, final concentrations of 2.5, 5.0, 10.0, and 20 μM were employed by triplicate. The Total Antioxidant Capacity Assay Kit from Sigma-Aldrich (catalog number MAK187, St. Louis, MO, USA) was used for the determination of in vitro antioxidant activity following the manufacturer’s instructions by triplicate."}, "HMG-CoA reductase [4]": {"target": "T1, HMG-CoA reductase (Homo sapiens, UniProt P04035)", "T1 construct": "purchased Sigma-Aldrich CS1090", "T1 sequence (P04035 426-888 limits assumed)": "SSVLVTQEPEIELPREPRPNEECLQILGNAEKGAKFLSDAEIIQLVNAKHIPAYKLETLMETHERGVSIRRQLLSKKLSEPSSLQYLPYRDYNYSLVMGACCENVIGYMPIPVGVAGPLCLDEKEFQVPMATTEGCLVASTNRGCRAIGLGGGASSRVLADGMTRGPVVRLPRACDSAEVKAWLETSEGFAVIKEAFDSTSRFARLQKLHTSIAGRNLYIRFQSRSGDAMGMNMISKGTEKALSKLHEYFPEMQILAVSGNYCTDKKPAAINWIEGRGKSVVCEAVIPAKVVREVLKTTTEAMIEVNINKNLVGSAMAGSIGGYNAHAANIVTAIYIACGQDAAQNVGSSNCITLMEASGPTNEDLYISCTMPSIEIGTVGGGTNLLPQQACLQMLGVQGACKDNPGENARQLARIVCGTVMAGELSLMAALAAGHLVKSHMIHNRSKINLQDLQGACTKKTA", "assay": "In vitro HMG-CoA reductase inhibition (HMG-CoA Reductase Assay Kit, Sigma-Aldrich CS1090)", "format": "biochemical", "conditions": "for inhibition at 20 µM: initial screening, read-out: inhibition of HMG-CoA reductase enzymatic activity", "procedure": "as §1"}, "[5]": {"parameters": "method as in PMID 20072920", "conditions": "CUPRAC; cited from earlier work"}, "HMG-CoA reductase [6]": {"target": "T1, HMG-CoA reductase", "parameters": "method as in earlier work", "conditions": "same commercial kit, ref 73 (Mendieta et al.); cited from earlier work"}}, "note": "Where two headings read alike, the source gives them in different places."}
{"smiles": "COc1ccc(C(=O)Nc2ccc(NC(=O)c3ccc(OC)c(OC)c3)c(C(=O)NCc3ccc(C(F)(F)F)cc3)c2)cc1OC", "note": "[Compound 1]", "values": [{"measurement": "effect on blood pressure", "setting": "diet-induced MetS model [1]", "value": "diminished"}, {"measurement": "effect on glucose serum levels", "setting": "diet-induced MetS model [1]", "value": "diminished"}, {"measurement": "effect on total cholesterol serum levels", "setting": "diet-induced MetS model [1]", "value": "diminished"}]}
{"smiles": "COc1ccc(C(=O)Nc2ccccc2C(=O)NCc2ccc(C(F)(F)F)cc2)cc1OC", "note": "[Compound 2]", "values": [{"measurement": "effect on glucose levels", "setting": "diet-induced MetS model [2]", "value": "did not affect"}, {"measurement": "effect on total cholesterol levels", "setting": "diet-induced MetS model [2]", "value": "did not affect"}, {"measurement": "effect on triglyceride levels", "setting": "diet-induced MetS model [2]", "value": "did not affect"}, {"measurement": "effect on body weight", "setting": "diet-induced MetS model [2]", "value": "did not affect"}]}
{"smiles": "COc1ccc(C(=O)Nc2ccc(NC(=O)c3ccc(OC)c(OC)c3)c(C(=O)O)c2)cc1OC", "note": "[Compound 3, 2,5-Bis(3,4-dimethoxybenzamido)benzoic Acid]", "values": [{"measurement": "TEAC (Trolox equivalent antioxidant capacity)", "setting": "[3]", "value": "1.01 ± 0.06"}, {"measurement": "inhibition at 20 µM", "setting": "HMG-CoA reductase [4]", "value": 94, "unit": "%"}, {"measurement": "IC50", "setting": "HMG-CoA reductase [4]; concentrations 2.5, 5.0, 10.0 and 20 μM, triplicate", "value": "8.89 ± 0.51", "unit": "µM"}, {"measurement": "effect on triglycerides and glucose (TyG) index", "setting": "diet-induced MetS model [2]", "value": "decrease"}, {"measurement": "effect on glucose levels", "setting": "diet-induced MetS model [2]", "value": "reduced"}, {"measurement": "effect on total cholesterol levels", "setting": "diet-induced MetS model [2]", "value": "reduced"}, {"measurement": "effect on triglyceride levels", "setting": "diet-induced MetS model [2]", "value": "reduced"}, {"measurement": "effect on body weight", "setting": "diet-induced MetS model [2]", "value": "reduced"}]}
{"smiles": "COc1ccc(/C=C/C(=O)Nc2ccc(NC(=O)/C=C/c3ccc(OC)c(OC)c3)c(C(=O)NCc3ccc(C(F)(F)F)cc3)c2)cc1OC", "note": "[Compound 4, (2E,2′E)-N,N′-(2-((4-(Trifluoromethyl)benzyl)carbamoyl)-1,4-phenylene)bis(3-(3,4-dimethoxyphenyl)acrylamide)]", "values": [{"measurement": "TEAC (Trolox equivalent antioxidant capacity)", "setting": "[3]", "value": "1.33 ± 0.04"}, {"measurement": "inhibition at 20 µM", "setting": "HMG-CoA reductase [4]", "value": 46, "unit": "%"}, {"measurement": "melting point", "value": "> 250", "unit": "°C"}, {"measurement": "effect on triglycerides and glucose (TyG) index", "setting": "diet-induced MetS model [2]", "value": "decrease"}, {"measurement": "effect on total cholesterol levels", "setting": "diet-induced MetS model [2]", "value": "not significant"}, {"measurement": "effect on body weight", "setting": "diet-induced MetS model [2]", "value": "not significant"}]}
{"smiles": "O=C(O[C@@H]1Cc2c(O)cc(O)cc2O[C@@H]1c1ccc(O)c(O)c1)c1cc(O)c(O)c(O)c1", "note": "[epicatechin gallate]", "values": [{"measurement": "TEAC (Trolox equivalent antioxidant capacity)", "setting": "[5]", "value": "above 3.0"}]}
{"smiles": "COc1cc(/C=C/C(=O)O)ccc1O", "note": "[ferulic acid]", "values": [{"measurement": "TEAC (Trolox equivalent antioxidant capacity)", "setting": "[5]", "value": 1.20}]}
{"smiles": "O=c1c(O)c(-c2ccc(O)c(O)c2)oc2cc(O)cc(O)c12", "note": "[quercetin]", "values": [{"measurement": "TEAC (Trolox equivalent antioxidant capacity)", "setting": "[5]", "value": "above 3.0"}]}
{"smiles": "C/C=C/c1cc(OC)c(OC)cc1OC", "note": "[α-asarone]", "values": [{"measurement": "IC50", "setting": "HMG-CoA reductase [6]", "value": 5.86, "unit": "µM"}]}
